Test: xn = mol fraction of the nth substance listed
Conditions: 101 kPa, Liquid, Pycnometric method

C=CC(=O)OCCCC [butyl 2-propenoate] + Cc1cc(C)cc(C)c1
mass density [kg/m3]
Conditions	288.15 K	293.15 K	298.15 K	303.15 K	308.15 K	313.15 K	318.15 K
x1 = 0.0724	871.63	867.64	863.65	859.66	855.67	851.68	847.69
x1 = 0.1414	873.88	869.82	865.76	861.7	857.64	853.58	849.52
x1 = 0.2135	876.24	872.11	867.99	863.87	859.75	855.63	851.51
x1 = 0.2846	878.6	874.42	870.24	866.06	861.88	857.71	853.54
x1 = 0.3512	880.84	876.6	872.37	868.14	863.91	859.68	855.45
x1 = 0.4223	883.26	878.97	874.68	870.39	866.1	861.81	857.53
x1 = 0.4998	885.94	881.58	877.22	872.87	868.52	864.17	859.82
x1 = 0.5724	888.47	884.05	879.63	875.21	870.8	866.39	861.98
x1 = 0.6578	891.46	886.97	882.48	877.99	873.5	869.02	864.54
x1 = 0.7131	893.41	888.87	884.33	879.8	875.27	870.74	866.21
x1 = 0.7823	895.86	891.26	886.66	882.07	877.48	872.89	868.3
x1 = 0.8563	898.49	893.83	889.17	884.52	879.87	875.22	870.57
x1 = 0.9295	901.09	896.38	891.67	886.96	882.26	877.56	872.86
x1 = 1	903.6	898.85	894.1	889.35	884.6	879.85	875.1

C=CC(=O)OCCCC [butyl 2-propenoate] + Cc1cccc(C)c1
mass density [kg/m3]
Conditions	288.15 K	293.15 K	298.15 K	303.15 K	308.15 K	313.15 K	318.15 K
x1 = 0.0732	871.73	867.39	863.05	858.71	854.37	850.04	845.71
x1 = 0.1432	874.65	870.26	865.87	861.48	857.1	852.72	848.34
x1 = 0.2103	877.37	872.94	868.51	864.08	859.66	855.24	850.82
x1 = 0.2841	880.28	875.81	871.34	866.87	862.41	857.95	853.49
x1 = 0.3605	883.19	878.68	874.17	869.66	865.16	860.66	856.16
x1 = 0.4318	885.82	881.28	876.74	872.2	867.66	863.12	858.58
x1 = 0.5006	888.28	883.7	879.12	874.55	869.98	865.41	860.84
x1 = 0.5778	890.95	886.34	881.73	877.12	872.51	867.9	863.3
x1 = 0.6534	893.46	888.81	884.17	879.53	874.89	870.25	865.61
x1 = 0.7204	895.6	890.93	886.26	881.59	876.92	872.25	867.58
x1 = 0.7935	897.84	893.13	888.43	883.73	879.03	874.33	869.63
x1 = 0.8579	899.73	895	890.27	885.54	880.82	876.1	871.38
x1 = 0.9306	901.78	897.03	892.28	887.53	882.79	878.05	873.31
x1 = 1	903.6	898.85	894.1	889.35	884.6	879.85	875.1
